This passage reports Activity and inhibition results from ChEMBL document CHEMBL3616455, “Anti-adipogenic activity of a new cyclic diarylheptanoid isolated from Alnus japonica on 3T3-L1 cells via modulation of PPARγ, C/EBPα and SREBP1c signaling” (Bioorg Med Chem Lett, 2015).

One assay is filed under the species Mus musculus. Description: Inhibition of PPARgamma/C/EBPalpha/SREBP1c in mouse 3T3L1 preadipocytes assessed as inhibition of adipocyte differentiation by measuring remaining lipid content at 100 uM measured on day 8 by Oil Red O staining-based spectrophotometric analysis relative to control. Format: cell-based.
Assay [1] deals with T1, Sterol regulatory element-binding protein 1 (Mus musculus) (UniProt Q9WTN3).
T1 sequence (whole entry): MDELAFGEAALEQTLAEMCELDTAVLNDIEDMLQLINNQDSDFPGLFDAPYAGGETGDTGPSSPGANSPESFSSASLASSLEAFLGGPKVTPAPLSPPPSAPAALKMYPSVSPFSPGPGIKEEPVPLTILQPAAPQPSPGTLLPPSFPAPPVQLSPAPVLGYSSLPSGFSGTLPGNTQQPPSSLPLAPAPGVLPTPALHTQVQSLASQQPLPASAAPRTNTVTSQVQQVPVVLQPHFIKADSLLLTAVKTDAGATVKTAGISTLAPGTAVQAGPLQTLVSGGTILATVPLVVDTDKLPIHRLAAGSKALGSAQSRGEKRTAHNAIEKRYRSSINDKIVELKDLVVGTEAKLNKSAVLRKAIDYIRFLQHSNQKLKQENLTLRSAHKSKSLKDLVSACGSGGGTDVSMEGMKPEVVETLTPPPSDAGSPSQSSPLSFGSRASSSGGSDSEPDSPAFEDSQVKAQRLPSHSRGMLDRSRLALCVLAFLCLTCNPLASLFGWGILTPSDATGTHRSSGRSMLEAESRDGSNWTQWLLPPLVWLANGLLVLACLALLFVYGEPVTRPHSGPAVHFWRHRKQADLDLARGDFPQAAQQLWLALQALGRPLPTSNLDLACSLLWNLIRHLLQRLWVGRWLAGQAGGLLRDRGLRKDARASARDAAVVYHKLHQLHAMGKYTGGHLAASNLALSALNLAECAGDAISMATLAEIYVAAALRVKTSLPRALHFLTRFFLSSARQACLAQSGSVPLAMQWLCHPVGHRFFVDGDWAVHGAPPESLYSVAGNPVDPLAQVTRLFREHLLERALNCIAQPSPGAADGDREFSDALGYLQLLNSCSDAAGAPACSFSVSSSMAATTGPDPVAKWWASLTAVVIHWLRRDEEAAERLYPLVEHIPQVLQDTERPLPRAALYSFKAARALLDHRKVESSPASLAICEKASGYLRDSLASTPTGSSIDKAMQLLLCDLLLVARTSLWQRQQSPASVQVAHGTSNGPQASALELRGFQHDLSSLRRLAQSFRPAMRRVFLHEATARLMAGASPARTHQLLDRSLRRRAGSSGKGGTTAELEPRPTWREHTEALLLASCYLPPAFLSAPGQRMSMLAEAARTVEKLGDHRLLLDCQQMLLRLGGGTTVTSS
Description: Inhibition of SREBP1c in mouse 3T3L1 preadipocytes at 50 to 100 uM after 8 days by Western blot analysis. The class given is cell-based.

Assay [2] in a line: Downregulation of LPL mRNA expression in mouse 3T3L1 preadipocytes at 50 to 100 uM after 8 days by qRT-PCR analysis. The class given is functional, cell-based. The conditions noted are these: 3T3-L1.
The target in assay [3] is T2, Peroxisome proliferator-activated receptor gamma (Mus musculus) (UniProt P37238).
T2 sequence (whole entry): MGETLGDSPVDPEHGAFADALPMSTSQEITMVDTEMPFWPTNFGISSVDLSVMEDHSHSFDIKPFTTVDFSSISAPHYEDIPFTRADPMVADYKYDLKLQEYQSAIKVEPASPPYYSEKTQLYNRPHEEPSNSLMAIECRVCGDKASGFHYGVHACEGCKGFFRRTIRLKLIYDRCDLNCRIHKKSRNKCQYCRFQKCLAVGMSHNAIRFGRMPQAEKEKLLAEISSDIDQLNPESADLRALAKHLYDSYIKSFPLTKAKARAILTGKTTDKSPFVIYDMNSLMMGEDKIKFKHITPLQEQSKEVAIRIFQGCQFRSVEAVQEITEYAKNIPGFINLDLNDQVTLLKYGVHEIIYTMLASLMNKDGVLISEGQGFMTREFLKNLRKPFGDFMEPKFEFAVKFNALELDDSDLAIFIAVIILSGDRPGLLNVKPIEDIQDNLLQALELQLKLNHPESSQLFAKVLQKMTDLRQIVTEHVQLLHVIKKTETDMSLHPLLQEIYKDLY
The experiment in a line: Inhibition of PPARgamma in mouse 3T3L1 preadipocytes at 50 to 100 uM after 8 days by Western blot analysis relative to control. The class given is cell-based.

The target of assay [4] is CCAAT/enhancer-binding protein alpha (Mus musculus) (UniProt P53566). The experiment in a line: Inhibition of C/EBPalpha in mouse 3T3L1 preadipocytes at 50 to 100 uM after 8 days by Western blot analysis relative to control. Format: cell-based. Background: A western blot detects proteins with antibodies after separation by electrophoresis.
Sequence of CCAAT/enhancer-binding protein alpha (Mus musculus) (P53566 whole entry): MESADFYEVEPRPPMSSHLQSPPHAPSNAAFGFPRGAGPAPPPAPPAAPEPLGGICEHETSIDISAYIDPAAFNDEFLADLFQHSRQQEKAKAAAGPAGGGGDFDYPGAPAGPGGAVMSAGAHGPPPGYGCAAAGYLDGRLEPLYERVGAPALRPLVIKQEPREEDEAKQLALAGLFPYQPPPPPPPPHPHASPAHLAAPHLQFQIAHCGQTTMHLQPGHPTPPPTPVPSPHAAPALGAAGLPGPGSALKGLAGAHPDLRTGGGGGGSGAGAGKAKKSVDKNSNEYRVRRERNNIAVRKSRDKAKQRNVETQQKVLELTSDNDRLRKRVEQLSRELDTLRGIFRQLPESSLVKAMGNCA
Assay [5] concerns the target T1, Sterol regulatory element-binding protein 1 (Mus musculus). The experiment in a line: Inhibition of SREBP1c in mouse 3T3L1 preadipocytes assessed as downregulation of SCD-1 mRNA expression at 50 to 100 uM after 8 days by qRT-PCR analysis. Format: cell-based. In general terms: Quantitative PCR measures a nucleic acid by following its amplification.
Assay [6] shares this target. The experiment in a line: Inhibition of SREBP1c in mouse 3T3L1 preadipocytes assessed as downregulation of FAS mRNA expression at 50 to 100 uM after 8 days by qRT-PCR analysis. Format: cell-based.
Assay [7] in a line: Downregulation of C/EBPdelta mRNA expression in mouse 3T3L1 preadipocytes at 50 to 100 uM measured on day 2 by qRT-PCR analysis. The class given is functional, cell-based. The conditions noted are these: 3T3-L1.
Assay [8] in a line: Downregulation of C/EBPbeta mRNA expression in mouse 3T3L1 preadipocytes at 50 to 100 uM measured on day 2 by qRT-PCR analysis. The class given is functional, cell-based. The conditions noted are these: 3T3-L1.

Structures are written as SMILES. The source made the active and inactive calls. No cut-off for these calls is given here.

Consider `O=C1CCCCc2ccc(O)c(c2)-c2cc(ccc2O)CC1`, for which the Activity in the assay listed under Mus musculus came out at 54.4%.
Same read-out and setting: then `COc1cc(/C=C/C(=O)O[C@H]2[C@H](O[C@@H](CCc3ccc(O)c(O)c3)CC(=O)CCc3ccc(O)c(O)c3)OC[C@@H](O)[C@@H]2O)ccc1O`, with 71.3%.
For `O=C1CCc2ccc(O)c(c2)-c2cc(ccc2O)CCC(=O)C1O`, the inhibition entry in assay [1], in assay [3], in assay [4], in [5] and in [6] was “Active” each time. Besides, the result in assay [2], in assay [7] and in assay [8] was Active. In addition, in the assay listed under Mus musculus, the Activity was 11.6%.
As for `O=C(CCc1ccc(O)c(O)c1)C[C@H](CCc1ccc(O)c(O)c1)O[C@@H]1OC[C@@H](O)[C@H](O)[C@H]1OC(=O)/C=C/c1ccccc1`, in the assay listed under Mus musculus, the Activity is 85.6%.
As for `O=C(CCc1ccc(O)c(O)c1)C[C@H](CCc1ccc(O)c(O)c1)O[C@@H]1OC[C@@H](O)[C@H](O)[C@H]1OC(=O)/C=C/c1ccc(O)cc1`, in the assay filed under Mus musculus, the Activity came to 95.7%.
For the compound `Oc1ccc2cc1-c1cc(ccc1O)CC(O)C(O)CC(O)C(O)C2` (stereo not given), the Activity in the assay listed under Mus musculus amounted to 58.5%.
Regarding `O=C(O[C@@H]1Cc2c(O)cc(O)cc2O[C@@H]1c1cc(O)c(O)c(O)c1)c1cc(O)c(O)c(O)c1`, the Activity in the assay listed under Mus musculus was determined as 54.5%.
